# Experimental data reported in paper PMC3005334 (Cell, 2010).
# Legend:
# Ypk1, Hal5, and Rck2 = test: In vitro small metabolite-protein binding assay; set-up: species or system Saccharomyces cerevisiae; settings: fixed amount of protein; indicates specific binding
# Kin4 = target: T1, Kin4 (Saccharomyces cerevisiae, UniProt Q01919); test: Affinity purification of tagged protein kinase and LC-MS of bound metabolites; type: binding; settings: 379.337 amu at 10.98 min
# T1 sequence (Q01919 1-800): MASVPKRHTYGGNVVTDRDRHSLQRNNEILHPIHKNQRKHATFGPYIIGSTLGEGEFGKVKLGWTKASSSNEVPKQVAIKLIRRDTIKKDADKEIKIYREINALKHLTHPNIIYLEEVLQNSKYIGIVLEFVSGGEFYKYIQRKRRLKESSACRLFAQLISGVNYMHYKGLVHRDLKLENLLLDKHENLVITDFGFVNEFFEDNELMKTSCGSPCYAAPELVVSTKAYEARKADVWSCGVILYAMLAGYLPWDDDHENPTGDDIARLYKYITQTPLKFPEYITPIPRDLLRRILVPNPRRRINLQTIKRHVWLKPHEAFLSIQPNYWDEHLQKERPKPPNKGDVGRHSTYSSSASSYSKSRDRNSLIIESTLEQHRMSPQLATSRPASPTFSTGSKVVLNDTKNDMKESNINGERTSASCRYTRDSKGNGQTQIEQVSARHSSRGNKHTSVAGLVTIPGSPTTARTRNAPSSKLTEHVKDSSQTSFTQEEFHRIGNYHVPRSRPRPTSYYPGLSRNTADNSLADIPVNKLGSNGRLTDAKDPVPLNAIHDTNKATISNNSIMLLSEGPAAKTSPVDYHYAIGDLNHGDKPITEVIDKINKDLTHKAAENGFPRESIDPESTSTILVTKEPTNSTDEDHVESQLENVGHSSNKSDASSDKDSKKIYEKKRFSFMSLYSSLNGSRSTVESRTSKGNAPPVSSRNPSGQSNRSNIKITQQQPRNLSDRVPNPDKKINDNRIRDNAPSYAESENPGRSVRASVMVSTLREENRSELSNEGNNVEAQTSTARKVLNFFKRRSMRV
# Ssk22 = target: T2, Ssk22 (Saccharomyces cerevisiae, UniProt P25390); test: Ssk22 protein levels purified from erg4Δ cells with exogenous ergosterol; type: cell-based; settings: erg4Δ mutant strain, exogenous ergosterol added to the medium
# T2 sequence (P25390 1-1331): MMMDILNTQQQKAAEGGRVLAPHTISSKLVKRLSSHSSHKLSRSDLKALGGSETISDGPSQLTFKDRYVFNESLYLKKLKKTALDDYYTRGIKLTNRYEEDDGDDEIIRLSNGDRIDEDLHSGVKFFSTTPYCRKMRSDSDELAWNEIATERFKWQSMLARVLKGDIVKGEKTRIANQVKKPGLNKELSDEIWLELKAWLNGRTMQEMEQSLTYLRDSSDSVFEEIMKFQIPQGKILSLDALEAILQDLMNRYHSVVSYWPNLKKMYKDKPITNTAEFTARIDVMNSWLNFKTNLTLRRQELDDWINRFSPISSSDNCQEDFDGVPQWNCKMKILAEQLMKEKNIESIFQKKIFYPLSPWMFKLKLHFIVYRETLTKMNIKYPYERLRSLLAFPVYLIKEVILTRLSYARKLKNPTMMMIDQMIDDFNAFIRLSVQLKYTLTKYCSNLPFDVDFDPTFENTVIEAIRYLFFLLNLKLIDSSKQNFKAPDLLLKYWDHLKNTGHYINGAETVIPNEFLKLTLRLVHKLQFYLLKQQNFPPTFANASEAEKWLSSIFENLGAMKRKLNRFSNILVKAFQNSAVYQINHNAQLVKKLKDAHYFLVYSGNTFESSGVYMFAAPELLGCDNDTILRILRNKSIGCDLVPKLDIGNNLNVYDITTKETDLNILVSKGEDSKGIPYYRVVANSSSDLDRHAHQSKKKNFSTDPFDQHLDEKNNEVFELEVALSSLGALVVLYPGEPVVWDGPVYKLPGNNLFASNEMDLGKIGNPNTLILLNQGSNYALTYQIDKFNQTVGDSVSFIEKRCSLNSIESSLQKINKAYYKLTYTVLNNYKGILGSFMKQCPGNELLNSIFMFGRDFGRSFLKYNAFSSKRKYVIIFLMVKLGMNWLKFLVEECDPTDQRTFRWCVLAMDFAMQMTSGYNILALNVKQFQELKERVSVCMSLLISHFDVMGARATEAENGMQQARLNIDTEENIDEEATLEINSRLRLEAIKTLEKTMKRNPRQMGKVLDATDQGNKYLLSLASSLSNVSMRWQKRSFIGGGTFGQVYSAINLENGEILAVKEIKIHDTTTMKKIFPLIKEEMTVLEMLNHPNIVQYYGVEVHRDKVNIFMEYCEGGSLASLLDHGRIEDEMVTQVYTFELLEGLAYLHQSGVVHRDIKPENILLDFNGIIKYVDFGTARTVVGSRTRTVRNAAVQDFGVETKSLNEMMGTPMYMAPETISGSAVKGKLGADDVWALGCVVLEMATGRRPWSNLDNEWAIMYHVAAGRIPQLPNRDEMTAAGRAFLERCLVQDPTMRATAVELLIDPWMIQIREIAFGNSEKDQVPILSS
# [1] = tested on: 21 ergosterol biosynthetic proteins (Erg proteins); settings: of 21 Erg enzymes, above the control
# Ypk1 = target: T3, Ypk1 (Saccharomyces cerevisiae, UniProt P12688); test: Affinity purification of tagged protein kinase and LC-MS of bound metabolites; type: binding; settings: identified against pure standards
# T3 sequence (P12688 1-680): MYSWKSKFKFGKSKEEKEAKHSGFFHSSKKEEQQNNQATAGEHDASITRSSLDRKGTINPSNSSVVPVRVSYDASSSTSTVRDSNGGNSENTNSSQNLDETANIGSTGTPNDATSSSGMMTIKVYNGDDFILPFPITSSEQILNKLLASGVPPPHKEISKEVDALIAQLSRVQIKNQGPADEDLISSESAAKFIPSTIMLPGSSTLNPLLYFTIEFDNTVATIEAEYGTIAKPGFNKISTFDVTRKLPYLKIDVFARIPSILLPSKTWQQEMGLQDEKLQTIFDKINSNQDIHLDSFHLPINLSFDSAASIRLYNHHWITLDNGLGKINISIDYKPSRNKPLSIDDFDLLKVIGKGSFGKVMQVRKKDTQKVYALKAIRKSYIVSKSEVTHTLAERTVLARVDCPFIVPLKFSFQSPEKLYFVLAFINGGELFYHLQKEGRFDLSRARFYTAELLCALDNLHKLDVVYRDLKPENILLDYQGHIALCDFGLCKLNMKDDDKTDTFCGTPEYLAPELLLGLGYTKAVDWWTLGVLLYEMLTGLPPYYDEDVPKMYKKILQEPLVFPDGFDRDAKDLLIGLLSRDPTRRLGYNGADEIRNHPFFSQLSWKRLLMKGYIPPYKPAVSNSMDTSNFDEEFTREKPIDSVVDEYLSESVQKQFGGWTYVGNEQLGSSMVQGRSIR
# Erg4 = Erg4 (Saccharomyces cerevisiae, UniProt P25340); type: binding; settings: in vivo bound, LC-MS; natural synthesizing enzyme
# Chain of Erg4 (P25340 whole entry): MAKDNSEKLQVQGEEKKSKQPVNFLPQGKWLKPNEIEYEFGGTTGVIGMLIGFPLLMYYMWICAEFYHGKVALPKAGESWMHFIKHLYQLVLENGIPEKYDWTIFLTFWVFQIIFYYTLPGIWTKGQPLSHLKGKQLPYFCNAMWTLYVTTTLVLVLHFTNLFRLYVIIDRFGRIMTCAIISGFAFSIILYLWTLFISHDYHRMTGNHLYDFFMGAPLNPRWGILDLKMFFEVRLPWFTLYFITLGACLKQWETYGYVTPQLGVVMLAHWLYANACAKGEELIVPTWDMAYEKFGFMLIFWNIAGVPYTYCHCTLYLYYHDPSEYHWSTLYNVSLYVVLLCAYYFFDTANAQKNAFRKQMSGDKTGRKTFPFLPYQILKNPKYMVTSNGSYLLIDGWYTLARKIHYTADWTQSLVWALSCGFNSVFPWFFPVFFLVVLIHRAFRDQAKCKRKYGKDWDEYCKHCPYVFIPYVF
compound,measurement,setting,value
CC(C)[C@@H](C)/C=C/[C@@H](C)[C@H]1CC[C@H]2C3=CC=C4C[C@@H](O)CC[C@]4(C)[C@H]3CC[C@]12C [ergosterol],shape of binding curve over increasing free ergosterol,"Ypk1, Hal5, and Rck2",saturable curve
same,binding to Kin4,Kin4,specific binding
same,Ssk22 protein levels,Ssk22,restored Ssk22 levels
same,number of Erg proteins the metabolite co-purified with,[1],5
same,metabolite extracted from Ypk1,Ypk1,bound metabolite
same,binding to Erg4,Erg4,bound
